Measured values: US7851510B2, “Gossypol derivatives, production method thereof and uses of same” (Centre National de la Recherche Scientifique (C.N.R.S.), priority 2004, dated 2010)
Where two headings read alike, the source gives them in different places.

Legend:
Experiment in all cases: Protein kinase activity in the presence of compound
Assay type in all cases: biochemical
CHK1 = target: T1, CHK1 (Homo sapiens, UniProt O14757); conditions: read-out: Residual activity CHK1
T1 sequence (O14757 1-476): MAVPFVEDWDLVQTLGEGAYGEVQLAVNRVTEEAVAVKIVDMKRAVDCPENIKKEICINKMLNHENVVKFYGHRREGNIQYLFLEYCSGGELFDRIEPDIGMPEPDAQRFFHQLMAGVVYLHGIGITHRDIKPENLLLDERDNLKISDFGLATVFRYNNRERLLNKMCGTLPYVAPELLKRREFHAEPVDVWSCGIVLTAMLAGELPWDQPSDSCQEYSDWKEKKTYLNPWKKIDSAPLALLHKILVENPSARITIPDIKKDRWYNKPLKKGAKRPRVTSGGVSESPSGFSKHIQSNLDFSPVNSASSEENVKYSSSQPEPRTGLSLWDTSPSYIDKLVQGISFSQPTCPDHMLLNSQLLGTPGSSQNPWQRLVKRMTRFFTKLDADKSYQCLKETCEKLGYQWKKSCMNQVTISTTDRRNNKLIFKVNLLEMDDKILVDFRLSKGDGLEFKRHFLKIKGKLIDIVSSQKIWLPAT
Experimental: (§1) The action of the compound of formula (14) was tested on a selection of 29 different protein kinases. The activity of these enzymes was measured in the presence of 10 μM of compound, according to the general methodology described by Bain et al. (2003) Biochem. J. 371:199-204 and Davies et al. (2000) Biochem. J. 351:95-105.
(§2) Residual enzyme activity of protein kinases in the presence of inhibitor compounds at the concentration given (expressed as a percentage of the activity measured in the absence of inhibitors). The results obtained for gossypol and gossypolone are given by way of comparison.

CK1 = conditions: 10 μM compound; percentage of the activity measured in the absence of inhibitors
Experimental: as §1, §2

CK2 = CK2 (Homo sapiens, UniProt P68400); conditions: read-out: Residual activity CK2
Chain of CK2 (P68400 whole entry): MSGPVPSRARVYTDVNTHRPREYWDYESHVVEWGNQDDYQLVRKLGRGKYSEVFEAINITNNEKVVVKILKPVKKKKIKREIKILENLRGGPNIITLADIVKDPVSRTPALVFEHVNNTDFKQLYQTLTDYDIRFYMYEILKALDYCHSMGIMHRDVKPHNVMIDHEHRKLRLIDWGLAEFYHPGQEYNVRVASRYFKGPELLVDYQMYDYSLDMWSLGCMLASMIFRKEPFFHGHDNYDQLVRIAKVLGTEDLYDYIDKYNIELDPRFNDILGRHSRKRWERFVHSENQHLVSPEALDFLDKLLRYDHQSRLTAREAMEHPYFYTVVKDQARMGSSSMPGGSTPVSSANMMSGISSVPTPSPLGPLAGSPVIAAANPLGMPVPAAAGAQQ
Experimental: as §1, §2

JNK/SAPK1c = JNK/SAPK1c (Homo sapiens, UniProt P45983); conditions: read-out: Residual activity JNK/SAPK1c
Experimental: as §1, §2

Lck = Lck (Homo sapiens, UniProt P06239); conditions: read-out: Residual activity Lck
Experimental: as §1, §2

MAPKAP-K1a = MAPKAP-K1a (Homo sapiens, UniProt Q15418); conditions: read-out: Residual activity MAPKAP-K1a
Chain of MAPKAP-K1a (Q15418 whole entry, species assumed): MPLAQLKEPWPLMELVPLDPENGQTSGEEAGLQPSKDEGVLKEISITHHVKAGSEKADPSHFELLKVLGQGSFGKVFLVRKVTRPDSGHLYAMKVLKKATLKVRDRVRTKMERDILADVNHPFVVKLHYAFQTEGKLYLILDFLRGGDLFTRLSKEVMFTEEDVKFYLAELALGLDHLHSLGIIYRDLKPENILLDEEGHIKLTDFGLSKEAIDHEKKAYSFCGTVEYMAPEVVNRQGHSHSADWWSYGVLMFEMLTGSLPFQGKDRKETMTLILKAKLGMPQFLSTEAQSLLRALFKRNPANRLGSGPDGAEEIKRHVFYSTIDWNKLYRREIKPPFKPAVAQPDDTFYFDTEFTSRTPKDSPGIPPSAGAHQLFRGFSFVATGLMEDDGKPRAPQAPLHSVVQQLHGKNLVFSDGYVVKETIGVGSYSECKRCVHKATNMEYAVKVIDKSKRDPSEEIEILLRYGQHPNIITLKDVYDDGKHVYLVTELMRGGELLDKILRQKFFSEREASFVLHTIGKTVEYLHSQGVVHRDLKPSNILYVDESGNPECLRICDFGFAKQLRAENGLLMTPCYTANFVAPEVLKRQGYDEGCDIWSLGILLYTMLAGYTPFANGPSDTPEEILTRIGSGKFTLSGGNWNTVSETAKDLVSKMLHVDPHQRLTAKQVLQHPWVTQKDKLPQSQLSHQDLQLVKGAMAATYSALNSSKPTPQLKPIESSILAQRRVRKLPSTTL
Experimental: as §1, §2

MSK1 = MSK1 (Homo sapiens, UniProt O75582); conditions: read-out: Residual activity MSK1
Chain of MSK1 (O75582 whole entry, species assumed): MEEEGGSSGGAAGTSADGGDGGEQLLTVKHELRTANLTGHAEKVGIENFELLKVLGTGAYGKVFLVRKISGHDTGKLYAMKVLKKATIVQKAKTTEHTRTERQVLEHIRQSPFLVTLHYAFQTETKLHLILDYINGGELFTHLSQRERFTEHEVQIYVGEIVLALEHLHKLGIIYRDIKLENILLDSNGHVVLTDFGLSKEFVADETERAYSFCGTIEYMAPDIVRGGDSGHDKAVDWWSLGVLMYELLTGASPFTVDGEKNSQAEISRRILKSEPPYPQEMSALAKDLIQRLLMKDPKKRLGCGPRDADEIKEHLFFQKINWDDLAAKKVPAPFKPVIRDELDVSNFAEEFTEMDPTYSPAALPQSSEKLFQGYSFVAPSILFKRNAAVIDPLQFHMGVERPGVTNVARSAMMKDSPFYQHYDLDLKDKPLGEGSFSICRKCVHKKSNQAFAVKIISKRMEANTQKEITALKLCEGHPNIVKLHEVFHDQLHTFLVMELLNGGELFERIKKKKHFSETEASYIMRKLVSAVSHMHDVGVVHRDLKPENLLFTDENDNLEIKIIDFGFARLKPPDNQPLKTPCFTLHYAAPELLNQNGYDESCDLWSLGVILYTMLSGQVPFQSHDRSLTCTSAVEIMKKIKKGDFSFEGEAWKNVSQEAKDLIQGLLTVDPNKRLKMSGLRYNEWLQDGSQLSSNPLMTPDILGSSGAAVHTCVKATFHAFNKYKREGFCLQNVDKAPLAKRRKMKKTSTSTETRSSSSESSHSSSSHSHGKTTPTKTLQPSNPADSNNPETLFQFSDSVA
Experimental: as §1, §2

NEK6 = NEK6 (Homo sapiens, UniProt Q9HC98); conditions: read-out: Residual activity NEK6
Chain of NEK6 (Q9HC98 whole entry, species assumed): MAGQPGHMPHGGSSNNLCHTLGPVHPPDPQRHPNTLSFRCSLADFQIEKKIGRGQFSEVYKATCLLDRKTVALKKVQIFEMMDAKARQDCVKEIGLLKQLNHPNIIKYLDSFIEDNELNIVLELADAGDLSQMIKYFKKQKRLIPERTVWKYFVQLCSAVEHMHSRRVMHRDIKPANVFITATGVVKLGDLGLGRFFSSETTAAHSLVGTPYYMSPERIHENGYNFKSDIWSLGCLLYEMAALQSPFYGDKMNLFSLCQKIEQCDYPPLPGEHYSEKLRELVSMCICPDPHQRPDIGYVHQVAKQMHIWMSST
Experimental: as §1, §2

PDK1 = target: T2, PDK1 (Homo sapiens, UniProt O15530); conditions: read-out: Residual activity PDK1
T2 sequence (O15530 1-556): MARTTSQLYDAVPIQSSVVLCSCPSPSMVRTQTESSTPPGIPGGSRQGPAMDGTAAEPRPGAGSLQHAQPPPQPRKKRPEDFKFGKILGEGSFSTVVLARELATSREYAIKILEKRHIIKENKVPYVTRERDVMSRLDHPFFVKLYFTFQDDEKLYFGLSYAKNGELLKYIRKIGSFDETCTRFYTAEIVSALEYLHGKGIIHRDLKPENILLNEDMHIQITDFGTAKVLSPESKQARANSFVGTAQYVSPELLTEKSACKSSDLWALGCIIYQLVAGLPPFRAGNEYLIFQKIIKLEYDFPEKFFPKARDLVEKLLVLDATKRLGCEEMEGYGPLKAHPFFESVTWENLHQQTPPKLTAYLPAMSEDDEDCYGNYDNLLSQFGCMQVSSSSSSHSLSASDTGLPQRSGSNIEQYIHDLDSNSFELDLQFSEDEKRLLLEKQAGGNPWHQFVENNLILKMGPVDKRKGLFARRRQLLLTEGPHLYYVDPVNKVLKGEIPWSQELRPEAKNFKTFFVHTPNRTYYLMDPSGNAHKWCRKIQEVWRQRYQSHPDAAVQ
Experimental: as §1, §2

PKB?ph = conditions: 10 μM compound; percentage of the activity measured in the absence of inhibitors
Experimental: as §1, §2

PKCa = PKCa (Homo sapiens, UniProt P17252); conditions: read-out: Residual activity PKCa
Experimental: as §1, §2

ROCK-II = ROCK-II (Homo sapiens, UniProt O75116); conditions: read-out: Residual activity ROCK-II
Chain of ROCK-II (O75116 whole entry, species assumed): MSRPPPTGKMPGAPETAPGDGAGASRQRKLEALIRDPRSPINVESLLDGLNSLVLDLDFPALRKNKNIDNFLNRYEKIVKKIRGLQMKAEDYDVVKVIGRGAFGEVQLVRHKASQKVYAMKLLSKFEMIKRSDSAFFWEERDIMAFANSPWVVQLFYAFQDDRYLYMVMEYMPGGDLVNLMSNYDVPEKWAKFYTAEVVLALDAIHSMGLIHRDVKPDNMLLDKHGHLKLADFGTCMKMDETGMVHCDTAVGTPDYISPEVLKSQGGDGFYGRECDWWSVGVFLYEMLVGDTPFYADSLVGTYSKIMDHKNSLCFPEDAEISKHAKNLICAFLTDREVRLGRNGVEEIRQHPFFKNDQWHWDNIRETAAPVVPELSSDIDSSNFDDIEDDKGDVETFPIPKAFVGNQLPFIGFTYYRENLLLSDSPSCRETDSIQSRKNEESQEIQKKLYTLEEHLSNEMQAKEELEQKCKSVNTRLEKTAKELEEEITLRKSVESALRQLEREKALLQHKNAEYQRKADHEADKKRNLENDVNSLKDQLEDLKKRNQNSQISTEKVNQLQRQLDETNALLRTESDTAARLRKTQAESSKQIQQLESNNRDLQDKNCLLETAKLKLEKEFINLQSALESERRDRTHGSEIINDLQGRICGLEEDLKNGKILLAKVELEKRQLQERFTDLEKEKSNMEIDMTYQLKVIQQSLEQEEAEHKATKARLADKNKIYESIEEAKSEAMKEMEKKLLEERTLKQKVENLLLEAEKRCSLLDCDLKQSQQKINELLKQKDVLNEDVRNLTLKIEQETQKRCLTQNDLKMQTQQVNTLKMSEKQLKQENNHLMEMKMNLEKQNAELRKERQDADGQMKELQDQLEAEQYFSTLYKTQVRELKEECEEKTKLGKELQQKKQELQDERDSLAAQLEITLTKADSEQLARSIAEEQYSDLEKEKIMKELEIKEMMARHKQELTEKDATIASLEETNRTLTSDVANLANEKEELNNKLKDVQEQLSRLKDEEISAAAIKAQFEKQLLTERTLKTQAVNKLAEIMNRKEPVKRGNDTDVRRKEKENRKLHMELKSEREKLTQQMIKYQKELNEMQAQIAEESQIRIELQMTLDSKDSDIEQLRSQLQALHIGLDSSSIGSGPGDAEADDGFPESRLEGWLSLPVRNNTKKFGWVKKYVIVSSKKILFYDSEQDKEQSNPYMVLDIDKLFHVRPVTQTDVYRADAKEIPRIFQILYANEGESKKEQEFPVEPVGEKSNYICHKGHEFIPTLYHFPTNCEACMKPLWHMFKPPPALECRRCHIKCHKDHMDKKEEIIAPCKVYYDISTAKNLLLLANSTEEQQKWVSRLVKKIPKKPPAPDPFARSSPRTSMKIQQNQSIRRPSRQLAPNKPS
Experimental: as §1, §2

SAPK2a/p38 = SAPK2a/p38 (Homo sapiens, UniProt Q16539); conditions: read-out: Residual activity SAPK2a/p38
Chain of SAPK2a/p38 (Q16539 whole entry): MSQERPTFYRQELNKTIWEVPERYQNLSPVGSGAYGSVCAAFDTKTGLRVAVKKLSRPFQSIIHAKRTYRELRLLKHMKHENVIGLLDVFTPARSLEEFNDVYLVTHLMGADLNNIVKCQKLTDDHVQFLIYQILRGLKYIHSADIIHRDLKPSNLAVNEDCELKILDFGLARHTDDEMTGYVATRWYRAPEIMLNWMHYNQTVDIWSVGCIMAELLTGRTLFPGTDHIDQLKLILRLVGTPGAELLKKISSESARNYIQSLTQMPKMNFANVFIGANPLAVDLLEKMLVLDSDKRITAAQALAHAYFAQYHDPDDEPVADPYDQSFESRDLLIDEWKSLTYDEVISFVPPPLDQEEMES
Experimental: as §1, §2

SAPK4/p38d = target: T3, SAPK4/p38d (Homo sapiens, UniProt O15264); conditions: read-out: Residual activity SAPK4/p38d
T3 sequence (O15264 1-365): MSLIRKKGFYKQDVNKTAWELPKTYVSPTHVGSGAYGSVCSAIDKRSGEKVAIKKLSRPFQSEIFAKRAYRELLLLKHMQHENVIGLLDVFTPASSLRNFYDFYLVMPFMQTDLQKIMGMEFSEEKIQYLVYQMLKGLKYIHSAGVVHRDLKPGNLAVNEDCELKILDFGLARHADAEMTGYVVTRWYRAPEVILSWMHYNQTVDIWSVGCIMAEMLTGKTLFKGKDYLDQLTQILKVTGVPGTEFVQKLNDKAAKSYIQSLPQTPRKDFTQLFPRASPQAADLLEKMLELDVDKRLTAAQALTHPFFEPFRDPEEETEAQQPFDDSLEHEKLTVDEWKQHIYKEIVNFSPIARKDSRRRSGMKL
Experimental: as §1, §2

p70 S6K = conditions: 10 μM compound; percentage of the activity measured in the absence of inhibitors
Experimental: as §1, §2

[1] = 10 μM compound, percentage of the activity measured in the absence of inhibitors

| Structure (SMILES) | remaining activity at 10 µM (CHK1) [%] | Residual activity CK1 (CK1) [%] | remaining activity at 10 µM (CK2) [%] | remaining activity at 10 µM (JNK/SAPK1c) [%] | remaining activity at 10 µM (Lck) [%] | remaining activity at 10 µM (MAPKAP-K1a) [%] | remaining activity at 10 µM (MSK1) [%] | remaining activity at 10 µM (NEK6) [%] | remaining activity at 10 µM (PDK1) [%] | Residual activity PKB?ph (PKB?ph) [%] | remaining activity at 10 µM (PKCa) [%] | remaining activity at 10 µM (ROCK-II) [%] | remaining activity at 10 µM (SAPK2a/p38) [%] | remaining activity at 10 µM (SAPK4/p38d) [%] | Residual activity p70 S6K (p70 S6K) [%] | other results |
| --- | --- | --- | --- | --- | --- | --- | --- | --- | --- | --- | --- | --- | --- | --- | --- | --- |
| CC1=C(C2=C(C)C(=O)c3c(c(C=O)c(O)c(O)c3C(C)C)C2=O)C(=O)c2c(C=O)c(O)c(O)c(C(C)C)c2C1=O [Gossypolone, gossypolone, reference compound] | 24 | 64 | 79 | 86 | 60 | 55 | 85 | 89 | 51 | 53 | 78 | 54 | 108 | 75 | 35 | – |
| CC1=C(C2=C(C)C(=O)c3c(c(CSCCO)c(O)c(O)c3C(C)C)C2=O)C(=O)c2c(CSCCO)c(O)c(O)c(C(C)C)c2C1=O [Compound (14), 6,7,6′,7′-tetrahydroxy-8,8′-bis-(2-hydroxy-ethylsulphanylmethyl)-5,5′-diisopropyl-3,3′-dimethyl-[2,2′]binaphthalenyl-1,4,1′,4′-tetraone] | – | 77 | – | – | – | – | – | – | – | 76 | – | – | – | – | 52 | remaining activity at 10 µM (CHK1; [1]): 47%; remaining activity at 10 µM (CK2; [1]): 85%; remaining activity at 10 µM (JNK/SAPK1c; [1]): 88%; remaining activity at 10 µM (Lck; [1]): 54%; remaining activity at 10 µM (MAPKAP-K1a; [1]): 60%; remaining activity at 10 µM (MSK1; [1]): 83%; remaining activity at 10 µM (NEK6; [1]): 81%; remaining activity at 10 µM (PDK1; [1]): 65%; remaining activity at 10 µM (PKCa; [1]): 86%; remaining activity at 10 µM (ROCK-II; [1]): 73%; remaining activity at 10 µM (SAPK2a/p38; [1]): 102%; remaining activity at 10 µM (SAPK4/p38d; [1]): 85% |
| CC1=C(C2=C(C)C(=O)c3c(c(O)c(O)c(O)c3C(C)C)C2=O)C(=O)c2c(O)c(O)c(O)c(C(C)C)c2C1=O [Compound (4), 6,7,8,6′,7′,8′-hexahydroxy-5,5′-diisopropyl-3,3′-dimethyl-[2.2′]binaphthalenyl-1,4,1′,4′-tetraone] | 127 | 88 | 80 | 105 | 71 | 58 | 69 | 86 | 88 | 39 | 85 | 75 | 105 | 88 | 34 | – |
| Cc1cc2c(C(C)C)c(O)c(O)c(C=O)c2c(O)c1-c1c(C)cc2c(C(C)C)c(O)c(O)c(C=O)c2c1O [Gossypol, gossypol] | 9 | 89 | 80 | 90 | 76 | 77 | 79 | 92 | 71 | 94 | 96 | 80 | 99 | 66 | 110 | – |
